This experiment has as its system HBV. Description: HepAD38 anti-HBV assay: reduction of viral product accumulation (virion DNA qPCR, HBsAg/HBeAg ELISA). The class given is cell-based. As to conditions: Hepatitis B virus. The method, then:
Methods: HepAD38 cells are maintained as previously reported (Ladner et al, Antimicrob. Agents Chemother. 1997, […], 1715). Briefly, cells are passaged upon attaining confluency in DMEM/F12 media in the presence of 10% FBS, Penn/Strep, 250 μg/mL G418, and 1 μg/ml tetracycline. Novel compounds are screened by first washing cells three times with PBS to remove tetracycline, and plating in 96 well plates at 35,000 cells/well. Compounds dissolved in DMSO are then diluted 1:200 into wells containing cells. Five days after compound addition, material is harvested for analysis. For an extended 8 day analysis, cells are plated and treated as described above, but media and compound are refreshed on d2 and d5 post initial treatment.
On harvest day, virion DNA is obtained by lysing with Sidestep Lysis and Stabilization Buffer and then quantified via quantitative real time PCR. Commercially available ELISA kits are used to quantitate the viral proteins HBsAg (Alpco) or HbeAg (US Biological) by following the manufacturer's recommended protocol after diluting samples to match the linear range of their respective assays. Irrespective of readout, compound concentrations that reduce viral product accumulation in the cell lysates or supernatants by 50% relative to no drug controls (EC50) are reported; EC50 ranges are as follows: A<0.1 μM; B 0.1-0.4 μM; C>0.4 μM.
In general terms: Real-time PCR tracks product formation cycle by cycle.

The mark [1] stands for this setting: 120 h, HepAD38 cells, concentration reducing viral product accumulation by 50% relative to no drug controls, harvest five days after compound addition, read-out: HepAD38 EC50.

Like-named read-outs stand apart in the source and are kept apart here.

Drawing on patent US11472808B2, “Substituted pyrrolo[1,2-c]pyrimidines as hepatitis B antiviral agents” (Enanta Pharmaceuticals, Inc., priority 2019, dated 2022), this text covers EC50 for 50 molecules.

As to `O=C(N[C@H]1CC2=C(c3ccn(C(F)F)n3)[C@H](c3ccc(F)cc3Cl)N=C(c3nccs3)N2C1)N1CCN(S(=O)(=O)c2ccccc2)CC1` [Example 228], under setting [1], the EC50 (usually the concentration that produces a half-maximal response) was above 0.4 µM.
The same measure, in the same setting: the figure for `COC(=O)CCCCS(=O)(=O)N[C@H]1CC2=C(c3ccn(C(F)F)n3)[C@H](c3ccc(F)cc3Cl)N=C(c3nccs3)N2C1` [Example 13] is 0.1 to 0.4 µM.
Same read-out and setting: the figure for `O=S(=O)(NCC1(c2ccccn2)CC1)N[C@H]1CC2=C(c3ccn(C(F)F)n3)[C@H](c3ccc(F)cc3Cl)N=C(c3nccs3)N2C1` [Example 316] is 0.1 to 0.4 µM; for `OC(c1c[nH]nn1)C1(F)CC2=C(c3ccn(C(F)F)n3)[C@H](c3ccc(F)cc3Cl)N=C(c3nccs3)N2C1` (some centres unmarked) [Example 184] it is above 0.4 µM.
The same measure, in the same setting: the same measure for `O=C(N[C@H]1CC2=C(c3ccn(C(F)F)n3)[C@H](c3ccc(F)cc3Cl)N=C(c3nccs3)N2C1)c1ncc(-c2ccccn2)s1` [Example 263]: 0.1 to 0.4 µM.
For `O=S(=O)(N[C@H]1CC2=C(c3ccn(C(F)F)n3)[C@H](c3ccc(F)cc3Cl)N=C(c3nccs3)N2C1)c1ccc2ncsc2c1` [Example 398], the EC50 under setting [1] was below 0.1 µM.
Same read-out and setting: the same measure for `OC[C@@]1(F)CC2=C(c3ccn(C(F)F)n3)[C@H](c3ccc(F)cc3Cl)N=C(c3nccs3)N2C1` [Example 166]: 0.1 to 0.4 µM.
In the case of `COC(=O)OC[C@]1(F)CC2=C(c3ccn(C(F)F)n3)[C@H](c3ccc(F)cc3Cl)N=C(c3nccs3)N2C1` [Example 182], the EC50 under setting [1] lay within 0.1 to 0.4 µM.
Regarding `CCOC(=O)Cc1ccccc1S(=O)(=O)N[C@H]1CC2=C(c3ccn(C(F)F)n3)[C@H](c3ccc(F)cc3Cl)N=C(c3nccs3)N2C1` [Example 30], the EC50 under setting [1] lay within 0.1 to 0.4 µM.
With `CC(C)OC(=O)N[C@H]1CC2=C(c3ccn(C(F)F)n3)[C@H](c3ccc(F)cc3Cl)N=C(c3nccs3)N2C1` [Example 202], the EC50 under setting [1] was below 0.1 µM.
Same read-out and setting: the figure for `Cc1ccc(C(=O)O)cc1S(=O)(=O)N[C@H]1CC2=C(c3ccn(C(F)F)n3)[C@H](c3ccc(F)cc3Cl)N=C(c3nccs3)N2C1` [Example 28] is 0.1 to 0.4 µM.
On the same count and under the same terms, the figure for `O=S(=O)(N[C@H]1CC2=C(c3ccn(C(F)F)n3)[C@H](c3ccc(F)cc3Cl)N=C(c3nccs3)N2C1)NC1(c2ccccn2)CC1` [Example 321] is below 0.1 µM; for `OCC(O)[C@@]1(F)CC2=C(c3ccn(C(F)F)n3)[C@H](c3ccc(F)cc3Cl)N=C(c3nccs3)N2C1` (some centres unmarked) [Example 170] it is 0.1 to 0.4 µM; for `CSC[C@]1(O)CC2=C(c3ccn(C(F)F)n3)[C@H](c3ccc(F)cc3Cl)N=C(c3nccs3)N2C1` [Example 143] it is 0.1 to 0.4 µM.
Same read-out and setting: the same measure for `O=C(N[C@H]1CC2=C(c3ccn(C(F)F)n3)[C@H](c3ccc(F)cc3Cl)N=C(c3nccs3)N2C1)C1CCCCC1` [Example 239]: 0.1 to 0.4 µM; for `O=C(N[C@H]1CC2=C(c3ccn(C(F)F)n3)[C@H](c3ccc(F)cc3Cl)N=C(c3nccs3)N2C1)N1CCC(O)(c2nccs2)CC1` [Example 244]: 0.1 to 0.4 µM.
In the case of `O=C(NCc1ccccn1)N[C@H]1CC2=C(c3ccn(C(F)F)n3)[C@H](c3ccc(F)cc3Cl)N=C(c3nccs3)N2C1` [Example 217], the 50% effective concentration (EC50) under setting [1] is above 0.4 µM.
Same read-out and setting: the same measure for `O=C(N[C@H]1CC2=C(c3ccn(C(F)F)n3)[C@H](c3ccc(F)cc3Cl)N=C(c3nccs3)N2C1)N1CCCCC1` [Example 206]: 0.1 to 0.4 µM; for `O=C(Nc1ccccn1)OCCCS(=O)(=O)N[C@H]1CC2=C(c3ccn(C(F)F)n3)[C@H](c3ccc(F)cc3Cl)N=C(c3nccs3)N2C1` [Example 327]: below 0.1 µM; for `Fc1ccc([C@@H]2N=C(c3nccs3)N3C[C@@H](Nc4cccc(-c5ccccn5)c4)CC3=C2c2ccn(C(F)F)n2)c(Cl)c1` [Example 331]: 0.1 to 0.4 µM.
Still for that read-out and setting: the same measure for `CS(=O)(=O)C[C@]1(O)CC2=C(c3ccn(C(F)F)n3)[C@H](c3ccc(F)cc3Cl)N=C(c3nccs3)N2C1` [Example 145]: above 0.4 µM.
For `O=S(=O)(NCc1nccs1)N[C@H]1CC2=C(c3ccn(C(F)F)n3)[C@H](c3ccc(F)cc3Cl)N=C(c3nccs3)N2C1` [Example 307], the concentration giving a half-maximal response (EC50) under setting [1] is below 0.1 µM.
The same measure, in the same setting: the same measure for `ONC[C@@]1(O)CC2=C(c3ccn(C(F)F)n3)[C@H](c3ccc(F)cc3Cl)N=C(c3nccs3)N2C1` [Example 122]: above 0.4 µM; for `CONC[C@@]1(O)CC2=C(c3ccn(C(F)F)n3)[C@H](c3ccc(F)cc3Cl)N=C(c3nccs3)N2C1` [Example 126]: above 0.4 µM; for `O=C(O)C1CCCN1CCS(=O)(=O)N[C@H]1CC2=C(c3ccn(C(F)F)n3)[C@H](c3ccc(F)cc3Cl)N=C(c3nccs3)N2C1` (some centres unmarked) [Example 65]: above 0.4 µM.
Same read-out and setting: the same measure for `O=C(O)C1CCN(C(=O)N[C@H]2CC3=C(c4ccn(C(F)F)n4)[C@H](c4ccc(F)cc4Cl)N=C(c4nccs4)N3C2)CC1` [Example 212]: 0.1 to 0.4 µM; for `O=C(N[C@H]1CC2=C(c3ccn(C(F)F)n3)[C@H](c3ccc(F)cc3Cl)N=C(c3nccs3)N2C1)N1CCOCC1` [Example 207]: below 0.1 µM.
The same measure, in the same setting: the same measure for `C#CCN1CCN([C@H]2CC3=C(c4ccn(C(F)F)n4)[C@H](c4ccc(F)cc4Cl)N=C(c4nccs4)N3C2)C1=O` [Example 41]: 0.1 to 0.4 µM; for `O=C(O)C1CCCN(C(=O)C2CCCN(CCS(=O)(=O)N[C@H]3CC4=C(c5ccn(C(F)F)n5)[C@H](c5ccc(F)cc5Cl)N=C(c5nccs5)N4C3)C2)C1` (some centres unmarked) [Example 69]: above 0.4 µM; for `Cn1cc(S(=O)(=O)N[C@H]2CC3=C(c4ccn(C(F)F)n4)[C@H](c4ccc(F)cc4Cl)N=C(c4nccs4)N3C2)cn1` [Example 404]: below 0.1 µM.
Turning to `O=C(N[C@H]1CC2=C(c3ccn(C(F)F)n3)[C@H](c3ccc(F)cc3Cl)N=C(c3nccs3)N2C1)N1CCC[C@@H](O)C1` [Example 223], the EC50 under setting [1] was in the range of 0.1 to 0.4 µM.
With `O=C(N[C@H]1CC2=C(c3ccn(C(F)F)n3)[C@H](c3ccc(F)cc3Cl)N=C(c3nccs3)N2C1)N1C[C@@H](O)[C@@H](O)C1` [Example 226], the EC50 under setting [1] is 0.1 to 0.4 µM.
On the same count and under the same terms, the same measure for `CC(C)C[C@@H](NS(=O)(=O)N[C@H]1CC2=C(c3ccn(C(F)F)n3)[C@H](c3ccc(F)cc3Cl)N=C(c3nccs3)N2C1)c1ccccn1` [Example 360]: 0.1 to 0.4 µM.
On the same count and under the same terms, the same measure for `COCCOC[C@@]1(O)CC2=C(c3ccn(C(F)F)n3)[C@H](c3ccc(F)cc3Cl)N=C(c3nccs3)N2C1` [Example 112]: above 0.4 µM; for `COC(=O)OC[C@@]1(F)CC2=C(c3ccn(C(F)F)n3)[C@H](c3ccc(F)cc3Cl)N=C(c3nccs3)N2C1` [Example 183]: 0.1 to 0.4 µM.
On the same count and under the same terms, the figure for `O/N=C/[C@]1(F)CC2=C(c3ccn(C(F)F)n3)[C@H](c3ccc(F)cc3Cl)N=C(c3nccs3)N2C1` [Example 179] is above 0.4 µM; for `CC(=O)OCCCS(=O)(=O)N([C@H]1CC2=C(c3ccn(C(F)F)n3)[C@H](c3ccc(F)cc3Cl)N=C(c3nccs3)N2C1)S(=O)(=O)CCCOC(C)=O` [Example 311] it is below 0.1 µM.
On to `O=S(=O)(N[C@H]1CC2=C(c3ccn(C(F)F)n3)[C@H](c3ccc(F)cc3Cl)N=C(c3nccs3)N2C1)N1C[C@@H](O)[C@@H](O)C1` [Example 103], for which the EC50 under setting [1] is below 0.1 µM.
Turning to `O=S(=O)(CCCc1nnn[nH]1)N[C@H]1CC2=C(c3ccn(C(F)F)n3)[C@H](c3ccc(F)cc3Cl)N=C(c3nccs3)N2C1` [Example 137], the EC50 under setting [1] is above 0.4 µM.
Still for that read-out and setting: the same measure for `COC(=O)c1ccc(C)c(S(=O)(=O)N[C@H]2CC3=C(c4ccn(C(F)F)n4)[C@H](c4ccc(F)cc4Cl)N=C(c4nccs4)N3C2)c1` [Example 25]: 0.1 to 0.4 µM; for `CS(=O)(=O)Nc1ccc(NS(=O)(=O)N[C@H]2CC3=C(c4ccn(C(F)F)n4)[C@H](c4ccc(F)cc4Cl)N=C(c4nccs4)N3C2)cc1` [Example 349]: below 0.1 µM.
In the case of `O=S(=O)(CCN1CCCC1)N[C@H]1CC2=C(c3ccn(C(F)F)n3)[C@H](c3ccc(F)cc3Cl)N=C(c3nccs3)N2C1` [Example 54], the EC50 under setting [1] fell in the range of 0.1 to 0.4 µM.
On the same count and under the same terms, the same measure for `O=C(N[C@H]1CC2=C(c3ccn(C(F)F)n3)[C@H](c3ccc(F)cc3Cl)N=C(c3nccs3)N2C1)OC1CCC1` [Example 253]: below 0.1 µM; for `O=S(=O)(Nc1ccccc1)N[C@H]1CC2=C(c3ccn(C(F)F)n3)[C@H](c3ccc(F)cc3Cl)N=C(c3nccs3)N2C1` [Example 82]: 0.1 to 0.4 µM; for `O=C(N[C@H]1CC2=C(c3ccn(C(F)F)n3)[C@H](c3ccc(F)cc3Cl)N=C(c3nccs3)N2C1)O[C@H]1CC[C@H](O)CC1` [Example 254]: below 0.1 µM.
On the same count and under the same terms, the figure for `O=S(=O)(Nc1ccc(C(O)c2ccccn2)cc1)N[C@H]1CC2=C(c3ccn(C(F)F)n3)[C@H](c3ccc(F)cc3Cl)N=C(c3nccs3)N2C1` (some centres unmarked) [Example 348] is below 0.1 µM.
The same measure, in the same setting: the figure for `O=S(=O)(NC1CCC1)N[C@H]1CC2=C(c3ccn(C(F)F)n3)[C@H](c3ccc(F)cc3Cl)N=C(c3nccs3)N2C1` [Example 415] is below 0.1 µM.
For the molecule `O=S(=O)(N[C@H]1CC2=C(c3ccn(C(F)F)n3)[C@H](c3ccc(F)cc3Cl)N=C(c3nccs3)N2C1)N1CCCC1c1ccccn1` (some centres unmarked) [Example 288], the EC50 under setting [1] is below 0.1 µM.
In the case of `O=C(N[C@H]1CC2=C(c3ccn(C(F)F)n3)[C@H](c3ccc(F)cc3Cl)N=C(c3nccs3)N2C1)Oc1ccccc1` [Example 200], under “HePAD38, 120 h, read-out: HepAD38 EC50 (μM)”, the EC50 is above 0.4 µM.
As to `O=S(=O)(NCc1ccccc1)N[C@H]1CC2=C(c3ccn(C(F)F)n3)[C@H](c3ccc(F)cc3Cl)N=C(c3nccs3)N2C1` [Example 305], the EC50 under setting [1] lay within 0.1 to 0.4 µM.
